Test results from patent US12600726B2, “Antagonists of the muscarinic acetylcholine receptor M4” (Vanderbilt University, priority 2017, dated 2026).

What was measured:
Human M4 = target: T1, Human M4 (Homo sapiens, UniProt P08173); assay: mAChR M4 cell-based functional calcium flux assay (human M4/Gqi5/CHO cells); details: for Emin (human M4): % ACh maximum at 30 μM; for IC50: decrease of the response to an EC80 concentration of acetylcholine
T1 construct: expressed in transfected cells; host or cells: CHO-K1 (ATCC), stably expressing M4 and Gqi5
T1 sequence (P08173 1-479): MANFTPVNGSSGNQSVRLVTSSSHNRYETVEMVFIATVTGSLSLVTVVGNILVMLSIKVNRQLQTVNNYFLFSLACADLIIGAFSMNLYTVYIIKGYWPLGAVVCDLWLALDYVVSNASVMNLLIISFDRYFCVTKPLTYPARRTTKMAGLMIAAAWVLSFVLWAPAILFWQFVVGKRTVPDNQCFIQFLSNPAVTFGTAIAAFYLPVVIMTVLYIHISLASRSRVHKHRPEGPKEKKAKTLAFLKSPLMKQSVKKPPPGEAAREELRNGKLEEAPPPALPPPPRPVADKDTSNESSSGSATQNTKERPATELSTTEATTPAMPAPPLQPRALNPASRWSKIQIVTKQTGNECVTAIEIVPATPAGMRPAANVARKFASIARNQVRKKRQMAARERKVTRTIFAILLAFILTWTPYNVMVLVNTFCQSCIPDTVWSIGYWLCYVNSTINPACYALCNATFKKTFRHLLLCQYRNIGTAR
Procedure, shortened: (§1)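 CHO-K1 cells stably co-expressing M4 of the given species with chimeric Gqi5 were loaded with Fluo-4 AM and read for calcium flux. Compounds (10-point, 1:3 dilutions) were added first, followed by an acetylcholine EC20 at 143 s and an EC80 at 268 s. IC50 reflects the concentration-dependent fall in the EC80 response, fitted with a four-parameter logistic.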

Rat M4 = target: T2, Rat M4 (Rattus norvegicus, UniProt P08485); assay: mAChR M4 cell-based functional calcium flux assay (rat M4/Gqi5/CHO cells); details: for Emin (rat M4): % ACh maximum at 30 μM
T2 construct: expressed in transfected cells; host or cells: CHO-K1 (ATCC), stably expressing M4 and Gqi5
T2 sequence (P08485 1-478): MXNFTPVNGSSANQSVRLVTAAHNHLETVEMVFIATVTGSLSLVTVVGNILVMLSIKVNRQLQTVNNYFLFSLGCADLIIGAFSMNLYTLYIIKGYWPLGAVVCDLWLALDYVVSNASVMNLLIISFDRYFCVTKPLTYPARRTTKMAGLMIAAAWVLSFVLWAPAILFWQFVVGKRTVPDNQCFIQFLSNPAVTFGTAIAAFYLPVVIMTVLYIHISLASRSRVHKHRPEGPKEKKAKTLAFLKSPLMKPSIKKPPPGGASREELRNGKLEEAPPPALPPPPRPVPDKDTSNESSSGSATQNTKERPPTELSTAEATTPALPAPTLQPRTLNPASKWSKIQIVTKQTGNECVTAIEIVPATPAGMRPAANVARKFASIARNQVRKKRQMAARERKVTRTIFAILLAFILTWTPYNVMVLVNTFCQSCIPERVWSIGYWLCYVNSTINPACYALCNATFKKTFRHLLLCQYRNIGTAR
Procedure, shortened: as §1

[1] = decrease of the response to an EC80 concentration of acetylcholine
[2] = cells printed in μM, decrease of the EC80 acetylcholine response

SMILES | Emin (human M4) (Human M4) [%] | IC50 (Human M4) [nM] | Emin (rat M4) (Rat M4) [%] | IC50 (Rat M4; [1]) [µM] | IC50 (Rat M4; [2]) [µM]
CCC(C)CN1CCC2(CC1)CC2CNc1ccc(-c2cn(C)nc2C)nn1 (stereo not drawn) [Compound 51, 6-(1,3-dimethylpyrazol-4-yl)-N-[[6-(2-methylbutyl)-6-azaspiro[2.5]octan-2-yl]methyl]pyridazin-3-amine] | 4.31 | 49.5 | 7.13 | 0.808 | –
CCCC(C)CN1CCC2(CC1)CC2CNc1ccc(-c2cn(C)nc2C)nn1 (stereo not drawn) [Compound 52, 6-(1,3-dimethylpyrazol-4-yl)-N-[[6-(2-methylpentyl)-6-azaspiro[2.5]octan-2-yl]methyl]pyridazin-3-amine] | 3.9 | 18.6 | 5.80 | 0.578 | –
CCN1CCC2(CC1)CC2CNc1ccc(-c2cn(C)nc2C)nn1 (stereo not drawn) [Compound 53, 6-(1,3-dimethylpyrazol-4-yl)-N-[(6-ethyl-6-azaspiro[2.5]octan-2-yl)methyl]pyridazin-3-amine] | 75.5 | – | 75.5 | – | > 10
CCCN1CCC2(CC1)CC2CNc1ccc(-c2cn(C)nc2C)nn1 (stereo not drawn) [Compound 54, 6-(1,3-dimethylpyrazol-4-yl)-N-[(6-propyl-6-azaspiro[2.5]octan-2-yl)methyl]pyridazin-3-amine] | 19.4 | 4690 | 53.6 | 9.49 | –
Cc1nn(C)cc1-c1ccc(NCC2CC23CCN(CC2CC2)CC3)nn1 (stereo not drawn) [Compound 55, N-[[6-(cyclopropylmethyl)-6-azaspiro[2.5]octan-2-yl]methyl]-6-(1,3-dimethylpyrazol-4-yl)pyridazin-3-amine] | 16.7 | 2890 | 45.7 | – | > 10
Cc1nn(C)cc1-c1ccc(NCC2CC23CCN(CC2CCCCC2)CC3)nn1 (stereo not drawn) [Compound 56, N-[[6-(cyclohexylmethyl)-6-azaspiro[2.5]octan-2-yl]methyl]-6-(1,3-dimethylpyrazol-4-yl)pyridazin-3-amine] | 3.42 | 5.06 | 4.14 | 0.0638 | –
Cc1nn(C)cc1-c1ccc(NCC2CC23CCN(CC24CC5CC(CC(C5)C2)C4)CC3)nn1 (stereo not drawn) [Compound 57, N-[[6-(1-adamantylmethyl)-6-azaspiro[2.5]octan-2-yl]methyl]-6-(1,3-dimethylpyrazol-4-yl)pyridazin-3-amine] | 3.30 | 69.1 | 3.84 | 0.534 | –
Cc1nn(C)cc1-c1ccc(NCC2CC23CCN(Cc2ccccc2)CC3)nn1 (stereo not drawn) [Compound 58, N-[(6-benzyl-6-azaspiro[2.5]octan-2-yl)methyl]-6-(1,3-dimethylpyrazol-4-yl)pyridazin-3-amine] | 4.18 | 384 | 11.8 | 3.6 | –
Cc1nn(C)cc1-c1ccc(NCC2CC23CCN(CC(c2ccccc2)c2ccccc2)CC3)nn1 (stereo not drawn) [Compound 59, 6-(1,3-dimethylpyrazol-4-yl)-N-[[6-(2,2-diphenylethyl)-6-azaspiro[2.5]octan-2-yl]methyl]pyridazin-3-amine] | 3.31 | 543 | 4.58 | 1.88 | –
Cc1nn(C)cc1-c1ccc(NCC2CC23CCN(CC2CCCOC2)CC3)nn1 (stereo not drawn) [Compound 60, 6-(1,3-dimethylpyrazol-4-yl)-N-[[6-(tetrahydropyran-3-ylmethyl)-6-azaspiro[2.5]octan-2-yl]methyl]pyridazin-3-amine] | 3.93 | 114 | 12.3 | 1.89 | –
Cc1nn(C)cc1-c1ccc(NCC2CC23CCN(CC2CCOCC2)CC3)nn1 (stereo not drawn) [Compound 61, 6-(1,3-dimethylpyrazol-4-yl)-N-[[6-(tetrahydropyran-4-ylmethyl)-6-azaspiro[2.5]octan-2-yl]methyl]pyridazin-3-amine] | 3.54 | 11.5 | 5.67 | 0.199 | –
Cc1cccnc1CN1CCC2(CC1)CC2CNc1ccc(-c2cn(C)nc2C)nn1 (stereo not drawn) [Compound 62, 6-(1,3-dimethylpyrazol-4-yl)-N-[[6-[(3-methyl-2-pyridyl)methyl]-6-azaspiro[2.5]octan-2-yl]methyl]pyridazin-3-amine] | 4.23 | 271 | 19.9 | 4.46 | –
Cc1nn(C)cc1-c1ccc(NCC2CC23CCN(Cc2ncccc2C(F)(F)F)CC3)nn1 (stereo not drawn) [Compound 63, 6-(1,3-dimethylpyrazol-4-yl)-N-[[6-[[3-(trifluoromethyl)-2-pyridyl]methyl]-6-azaspiro[2.5]octan-2-yl]methyl]pyridazin-3-amine] | 4.53 | 537 | 19.9 | – | > 10
CC(C)(C)CCN1CCC2(CC1)C[C@H]2CNc1ccc(-c2cc(F)ccc2Cl)nn1 [Compound 64, (R)-6-(2-chloro-5-fluoro-phenyl)-N-[[6-(3,3-dimethylbutyl)-6-azaspiro[2.5]octan-2-yl]methyl]pyridazin-3-amine] | 2.90 | 11 | 3.68 | 0.0332 | –
Fc1ccc(Cl)c(-c2ccc(NC[C@@H]3CC34CCN(CC3CCCCC3)CC4)nn2)c1 [Compound 65, (R)-6-(2-chloro-5-fluoro-phenyl)-N-[[6-(cyclohexylmethyl)-6-azaspiro[2.5]octan-2-yl]methyl]pyridazin-3-amine] | 2.62 | 12.7 | 4.33 | 0.0809 | –
CC(C)(C)CCN1CCC2(CC1)C[C@@H]2CNc1ccc(-c2cc(F)ccc2Cl)nn1 [Compound 66, (S)-6-(2-chloro-5-fluoro-phenyl)-N-[[6-(3,3-dimethylbutyl)-6-azaspiro[2.5]octan-2-yl]methyl]pyridazin-3-amine] | 3.50 | 9.91 | 3.95 | 0.151 | –
Fc1ccc(Cl)c(-c2ccc(NC[C@H]3CC34CCN(CC3CCCCC3)CC4)nn2)c1 [Compound 67, (S)-6-(2-chloro-5-fluoro-phenyl)-N-[[6-(cyclohexylmethyl)-6-azaspiro[2.5]octan-2-yl]methyl]pyridazin-3-amine] | 3.66 | 27.8 | 4.36 | 0.527 | –
Fc1ccc(Cl)c(-c2ccc(NCC3CC34CCN(CC3CC5C=CC3C5)CC4)nc2)c1 (stereo not drawn) [Compound 68, N-[[6-(5-bicyclo[2.2.1]hept-2-enylmethyl)-6-azaspiro[2.5]octan-2-yl]methyl]-5-(2-chloro-5-fluoro-phenyl)pyridin-2-amine] | 4.04 | 495 | 4.48 | 1.5 | –
CC(C)(C)CCN1CCC2(CC1)CC2CNc1ccc(-c2cc(F)ccc2Cl)cn1 (stereo not drawn) [Compound 69, 5-(2-chloro-5-fluoro-phenyl)-N-[[6-(3,3-dimethylbutyl)-6-azaspiro[2.5]octan-2-yl]methyl]pyridin-2-amine] | 4.09 | 749 | 4.18 | 1.8 | –
